Results from PubChem BioAssay (NCI).
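Step 1: Grow cells in 96-well plates. Step 2: Expose to compound for 48 hours at 5 concentrations. Step 3: Interpolate endpoints linearly; if unreached, use highest concentration. The concentration for 50% growth inhibition is given as GI50. At the TGI there is no net growth.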 Where a SMILES comes first, the peptide text is derived from it. [ ]: non-standard residue; d: D form. The star is where a group is joined. Nle = CCCC[C@H](N)C(=O)O; Cbz = O=C(OCc1ccccc1)*

Experiments:
Assay in all cases: inhibition of tumour cell growth, NCI panel, 48 h
RPMI-8226 leukemia = test system: RPMI-8226 leukemia
SNB-19 CNS = test system: SNB-19 CNS
OVCAR-4 ovarian = test system: OVCAR-4 ovarian
CCRF-CEM leukemia = test system: CCRF-CEM leukemia
HOP-92 NSCLC = test system: HOP-92 NSCLC
MALME-3M melanoma = test system: MALME-3M melanoma
HS 578T breast = test system: HS 578T breast
IGROV1 ovarian = test system: IGROV1 ovarian
SW-620 colon = test system: SW-620 colon
UO-31 renal = test system: UO-31 renal
DU-145 prostate = test system: DU-145 prostate
MDA-MB-231 breast = test system: MDA-MB-231 breast
HOP-62 NSCLC = test system: HOP-62 NSCLC
MOLT-4 leukemia = test system: MOLT-4 leukemia
OVCAR-8 ovarian = test system: OVCAR-8 ovarian
LOX IMVI melanoma = test system: LOX IMVI melanoma
HCC-2998 colon = test system: HCC-2998 colon
HT29 colon = test system: HT29 colon
NCI-H226 lung = test system: NCI-H226 lung
RXF 393 renal = test system: RXF 393 renal
SK-MEL-5 melanoma = test system: SK-MEL-5 melanoma
NCI-H23 lung = test system: NCI-H23 lung
SK-MEL-28 melanoma = test system: SK-MEL-28 melanoma
HCT-116 colon = test system: HCT-116 colon
SF-295 CNS = test system: SF-295 CNS
ACHN renal = test system: ACHN renal
KM12 colon = test system: KM12 colon
M14 melanoma = test system: M14 melanoma
U251 CNS = test system: U251 CNS
T-47D breast = test system: T-47D breast
PC-3 prostate = test system: PC-3 prostate
A498 renal = test system: A498 renal
COLO 205 colon = test system: COLO 205 colon
TK-10 renal = test system: TK-10 renal
A549 NSCLC = test system: A549 NSCLC
UACC-257 melanoma = test system: UACC-257 melanoma
786-0 renal = test system: 786-0 renal
MCF7 breast = test system: MCF7 breast
K-562 leukemia = test system: K-562 leukemia
SK-OV-3 ovarian = test system: SK-OV-3 ovarian
EKVX NSCLC = test system: EKVX NSCLC
NCI-H522 lung = test system: NCI-H522 lung
OVCAR-5 ovarian = test system: OVCAR-5 ovarian
NCI-H460 lung = test system: NCI-H460 lung
HCT-15 colon = test system: HCT-15 colon
SF-268 CNS = test system: SF-268 CNS
UACC-62 melanoma = test system: UACC-62 melanoma
SR leukemia = test system: SR leukemia
OVCAR-3 ovarian = test system: OVCAR-3 ovarian
NCI/ADR-RES ovarian = test system: NCI/ADR-RES ovarian
HL-60(TB) leukemia = test system: HL-60(TB) leukemia
CAKI-1 renal = test system: CAKI-1 renal
MDA-MB-435 = test system: MDA-MB-435
BT-549 breast = test system: BT-549 breast
SF-539 CNS = test system: SF-539 CNS
SK-MEL-2 melanoma = test system: SK-MEL-2 melanoma

In the case of `CCCC[C@@H](C=O)NC(=O)[C@H](CC(C)C)NC(=O)[C@H](CC(C)C)NC(=O)OCc1ccccc1` (Cbz-Leu-Leu-[Nle]-aldehyde), the GI50 (RPMI-8226 leukemia) is reported as 359 nM, the GI50 (SNB-19 CNS) is reported as 5370 nM and the TGI (SNB-19 CNS) is reported as over 21200 nM. The GI50 (OVCAR-4 ovarian) was 1070 nM, the TGI (OVCAR-4 ovarian) was over 81000 nM and the GI50 (CCRF-CEM leukemia) was 440 nM. The TGI (CCRF-CEM leukemia) was over 100000 nM, the GI50 (HOP-92 NSCLC) was 2090 nM and the TGI (HOP-92 NSCLC) was 6220 nM. It also gave a GI50 (MALME-3M melanoma) of 570 nM, a TGI (MALME-3M melanoma) of 4870 nM and a GI50 (HS 578T breast) of 308 nM. For the same molecule, the TGI (HS 578T breast) was 4180 nM, the GI50 (IGROV1 ovarian) was 308 nM and the TGI (IGROV1 ovarian) was 4390 nM. The GI50 (SW-620 colon) was 298 nM, the TGI (SW-620 colon) was 2500 nM and the GI50 (UO-31 renal) was 398 nM. The TGI (UO-31 renal) was 1670 nM, the GI50 (DU-145 prostate) was 617 nM and the TGI (DU-145 prostate) was 2460 nM. For the same molecule, the GI50 (MDA-MB-231 breast) was 444 nM, the TGI (MDA-MB-231 breast) was 1910 nM and the GI50 (HOP-62 NSCLC) was 415 nM. The TGI (HOP-62 NSCLC) was 1550 nM, the GI50 (MOLT-4 leukemia) was 517 nM and the TGI (MOLT-4 leukemia) was over 100000 nM. For the same molecule, the GI50 (OVCAR-8 ovarian) was 1410 nM, the TGI (OVCAR-8 ovarian) was over 37500 nM and the GI50 (LOX IMVI melanoma) was 226 nM. For the same molecule, the TGI (LOX IMVI melanoma) was 537 nM, the GI50 (HCC-2998 colon) was 593 nM and the TGI (HCC-2998 colon) was 1960 nM. The GI50 (HT29 colon) was 349 nM, the TGI (HT29 colon) was over 34000 nM and the GI50 (NCI-H226 lung) was 175 nM. It also gave a TGI (NCI-H226 lung) of 343 nM, a GI50 (RXF 393 renal) of 144 nM and a TGI (RXF 393 renal) of 316 nM. For the same molecule, the GI50 (SK-MEL-5 melanoma) was 432 nM, the TGI (SK-MEL-5 melanoma) was 1880 nM and the GI50 (NCI-H23 lung) was 380 nM. The TGI (NCI-H23 lung) was 1770 nM, the GI50 (SK-MEL-28 melanoma) was 430 nM and the TGI (SK-MEL-28 melanoma) was 1610 nM. It also gave a GI50 (HCT-116 colon) of 173 nM, a TGI (HCT-116 colon) of 349 nM and a GI50 (SF-295 CNS) of 486 nM. It also gave a TGI (SF-295 CNS) of 5710 nM, a GI50 (ACHN renal) of 366 nM and a TGI (ACHN renal) of 2430 nM. For the same molecule, the GI50 (KM12 colon) was 504 nM, the GI50 (M14 melanoma) was 244 nM and the TGI (M14 melanoma) was 603 nM. It also gave a GI50 (U251 CNS) of 570 nM, a TGI (U251 CNS) of 2120 nM and a GI50 (T-47D breast) of 688 nM. It also gave a GI50 (PC-3 prostate) of 2370 nM, a TGI (PC-3 prostate) of over 21100 nM and a GI50 (A498 renal) of 305 nM. It also gave a TGI (A498 renal) of 964 nM, a GI50 (COLO 205 colon) of 979 nM and a TGI (COLO 205 colon) of 6200 nM. For the same molecule, the GI50 (TK-10 renal) was 332 nM, the GI50 (A549 NSCLC) was 663 nM and the TGI (A549 NSCLC) was 12200 nM. It also gave a GI50 (UACC-257 melanoma) of 395 nM, a TGI (UACC-257 melanoma) of 1960 nM and a GI50 (786-0 renal) of 243 nM. The TGI (786-0 renal) was 1410 nM, the GI50 (MCF7 breast) was 546 nM and the TGI (MCF7 breast) was 20700 nM. It also gave a GI50 (K-562 leukemia) of 988 nM, a TGI (K-562 leukemia) of over 100000 nM and a GI50 (SK-OV-3 ovarian) of 1310 nM. It also gave a TGI (SK-OV-3 ovarian) of over 71500 nM, a GI50 (EKVX NSCLC) of 1060 nM and a TGI (EKVX NSCLC) of over 59000 nM. It also gave a GI50 (NCI-H522 lung) of 662 nM, a TGI (NCI-H522 lung) of 5820 nM and a GI50 (OVCAR-5 ovarian) of 930 nM. It also gave a TGI (OVCAR-5 ovarian) of 2840 nM, a GI50 (NCI-H460 lung) of 1570 nM and a TGI (NCI-H460 lung) of 6280 nM. It also gave a GI50 (HCT-15 colon) of 1270 nM, a TGI (HCT-15 colon) of 4940 nM and a GI50 (SF-268 CNS) of 406 nM. The TGI (SF-268 CNS) was 4170 nM, the GI50 (UACC-62 melanoma) was 403 nM and the TGI (UACC-62 melanoma) was 1510 nM. The GI50 (SR leukemia) was 279 nM, the TGI (SR leukemia) was 1360 nM and the GI50 (OVCAR-3 ovarian) was 361 nM. The TGI (OVCAR-3 ovarian) was 4660 nM, the GI50 (NCI/ADR-RES ovarian) was 3960 nM and the TGI (NCI/ADR-RES ovarian) was over 32600 nM. The GI50 (HL-60(TB) leukemia) was 1010 nM, the TGI (HL-60(TB) leukemia) was over 100000 nM and the GI50 (CAKI-1 renal) was 441 nM. The TGI (CAKI-1 renal) was 2150 nM, the GI50 (MDA-MB-435) was 212 nM and the TGI (MDA-MB-435) was 469 nM. For the same molecule, the GI50 (BT-549 breast) was 409 nM, the TGI (BT-549 breast) was 2590 nM and the GI50 (SF-539 CNS) was 268 nM. For the same molecule, the TGI (SF-539 CNS) was 2530 nM, the GI50 (SK-MEL-2 melanoma) was 791 nM and the TGI (SK-MEL-2 melanoma) was 2840 nM.
